Assay results from ChEMBL document CHEMBL1149045, “Further butenolides from the Caribbean octocoral Pterogorgia citrina” (J Nat Prod, 1994).
Active and inactive are the calls of the source. The calls are words filed in the database; no cut-off is given here.

Assays:
[1] = tested on: Escherichia coli; assay: Antimicrobial activity against Escherichia coli at 10 ug/disk; format: functional, organism-based
[2] = tested on: Escherichia coli; assay: Antimicrobial activity against Escherichia coli at 5 ug/disk; format: functional, organism-based
[3] = tested on: Escherichia coli; assay: Antimicrobial activity against Escherichia coli at 1 ug/disk; format: functional, organism-based
[4] = tested on: Staphylococcus aureus; assay: Antimicrobial activity against Staphylococcus aureus at 10 ug/disk; format: functional, organism-based
[5] = tested on: Staphylococcus aureus; assay: Antimicrobial activity against Staphylococcus aureus at 5 ug/disk; format: functional, organism-based
[6] = tested on: Staphylococcus aureus; assay: Antimicrobial activity against Staphylococcus aureus at 1 ug/disk; format: functional, organism-based
[7] = tested on: HCT-116; assay: Cytotoxicity against human HCT116 cells; format: functional, cell-based

Compound | Activity [1] | Activity [2] | Activity [3] | Activity [4] | Activity [5] | Activity [6] | IC50 [7] [µg/mL]
C[C@H]1C=C(CCCCCCCCCCCCCCC2=C[C@H](C)OC2=O)C(=O)O1 [HOMOANCEPSENOLIDE] | inactive | inactive | inactive | inactive | inactive | inactive | > 50
CC(=O)O[C@@H]1[C@H](C)OC(=O)[C@@H]1CCCCCC/C=C\CCCCCCC1=C[C@H](C)OC1=O | inactive | inactive | inactive | inactive | inactive | inactive | 
C[C@H]1C=C(CCCCCC/C=C\CCCCCCC2=C[C@H](C)OC2=O)C(=O)O1 | inactive | inactive | inactive | inactive | inactive | inactive | > 50
C[C@@H]1OC(=O)[C@@H](CCCCCCCCCCCCC2=C[C@H](C)OC2=O)[C@H]1O | inactive | inactive | inactive | inactive | inactive | inactive | 
CC(=O)O[C@H]1[C@H](C)OC(=O)[C@H]1CCCCCCCCCCCCC1=C[C@H](C)OC1=O | inactive | inactive | inactive | inactive | inactive | inactive | 
CC(=O)O[C@@H]1[C@H](C)OC(=O)[C@@H]1CCCCCCCCCCCCC1=C[C@H](C)OC1=O [ANCEPSENOLIDE ACETATE] | inactive | inactive | inactive | inactive | inactive | inactive | > 50
CC(=O)O[C@H]1[C@H](C)OC(=O)[C@H]1CCCCCCCCCCCCCCC1=C[C@H](C)OC1=O | inactive | inactive | inactive | inactive | inactive | inactive | 
CC(=O)O[C@@H]1[C@H](C)OC(=O)[C@@H]1CCCCCCCCCCCCCCC1=C[C@H](C)OC1=O | inactive | inactive | inactive | inactive | inactive | inactive | 
